The record followed here is EP0279150A1, “5-Oxy-substituted-3-aminochroman compounds, processes for their preparation, pharmaceutical compositions containing them and methods of treatment therewith” (ASTRA LAKEMEDEL AKTIEBOLAG, priority 1986, dated 1988).

The target in test [1] is 5-HT₁. As to the kind of experiment: Receptor binding assay, ³H-5-HT. Conditions: ³H-5-HT (5 nM) binding, rat brain (striatal) membranes, 10 minutes at 37°C; read-out: IC₅₀. Here is the method: (§1) The method of Peroulka & Snyder (Mol.Pharmacol. 16, 687-699, 1979) was used. Male Sprague-Dawley rats weighing 150-200 g were decapitated, and their brains were rapidly removed. The striata were dissected, pooled and homogenized in 50 mM Tris-HCl buffer (pH 7.6). The membrane fraction was collected by centrifugation (48 000 g for ten minutes), washed once with the buffer, and resuspended in 50 mM Tris HCl (pH 7.6) containing 0.1% ascorbic acid, 10 mM paragyline, 120 mM NaCl, 5 mM KCl, 2 mM CaCl₂ and 1 mM MgCl₂. The suspension was preincubated at 37°C for 10 minutes and then kept on ice until use.
(§2) The assays have been carried out using a cell harvester equipment. The incubations were made in quadruplicate, each well containing membrane suspension, ³H-spiperone (0.4 nM) or ³H-5-HT (5 nM) and the test compound in a final volume of 0.5 ml. After incubation for 10 minutes at 37°C, the contents of the wells were rapidly filtered and washed on Whatman GF/B filters using the Cell harvester. The specific binding was defined as the difference of radioligand bound in the presence and in the absence of a specific displacer (d-LSD, lµM and 5-HT, 10 µM for ³4-spiperone and ³H-5-HT, respectively). The test results are expressed as IC₅₀. The IC₅₀ value is given in nM, indicates the concentration of the test substance which reduces the amount of specifically bound radioligand by 50%..

The target in test [2] is T1, Dopamine-D₂ (Rattus norvegicus, UniProt P61169).
T1 construct: The striata were dissected, pooled and homogenized in 50 mM Tris-HCl buffer (pH 7.6); from tissue; host or cells: rat striatum membrane fraction
T1 sequence (P61169 whole entry): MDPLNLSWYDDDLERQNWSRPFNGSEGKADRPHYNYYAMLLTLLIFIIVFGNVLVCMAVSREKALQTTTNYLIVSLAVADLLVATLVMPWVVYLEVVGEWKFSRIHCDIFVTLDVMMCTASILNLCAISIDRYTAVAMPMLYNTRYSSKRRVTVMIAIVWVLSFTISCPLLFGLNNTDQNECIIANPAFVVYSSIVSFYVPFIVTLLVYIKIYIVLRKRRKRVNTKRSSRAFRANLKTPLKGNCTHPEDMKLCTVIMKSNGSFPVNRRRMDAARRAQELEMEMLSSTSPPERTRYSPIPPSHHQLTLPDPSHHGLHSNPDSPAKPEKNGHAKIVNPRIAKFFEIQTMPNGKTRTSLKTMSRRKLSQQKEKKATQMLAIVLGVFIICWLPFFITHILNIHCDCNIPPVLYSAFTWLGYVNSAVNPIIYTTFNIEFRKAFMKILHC
Kind of test: Receptor binding assay, ³H-spiroperidol. Conditions: ³H-spiroperidol binding, rat brain membranes. Here is the method:
as §1, §2

For test [3], the target named is T2, 5-HT₂ (Rattus norvegicus, UniProt P14842).
T2 construct: from tissue
T2 sequence (P14842 whole entry): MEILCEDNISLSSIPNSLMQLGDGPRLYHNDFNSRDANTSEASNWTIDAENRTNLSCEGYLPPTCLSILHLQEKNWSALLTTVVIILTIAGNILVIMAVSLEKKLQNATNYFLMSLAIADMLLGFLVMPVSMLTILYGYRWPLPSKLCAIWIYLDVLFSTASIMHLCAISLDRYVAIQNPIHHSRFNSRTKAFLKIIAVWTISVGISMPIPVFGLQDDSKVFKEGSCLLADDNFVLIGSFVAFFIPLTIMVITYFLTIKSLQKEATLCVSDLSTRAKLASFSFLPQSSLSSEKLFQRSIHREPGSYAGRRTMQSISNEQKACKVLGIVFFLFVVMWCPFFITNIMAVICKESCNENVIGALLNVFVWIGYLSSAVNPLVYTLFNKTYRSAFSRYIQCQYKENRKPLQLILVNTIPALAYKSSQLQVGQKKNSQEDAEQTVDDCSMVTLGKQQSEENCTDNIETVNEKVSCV
Kind of test: Receptor binding assay, ³H-Ketanserin. Conditions: ³H-Ketanserin binding, rat brain membranes.

Each structure is given as a SMILES string.

Take `CCCN(CCC)C1COc2cccc(O)c2C1` (stereo not drawn) [3-di-propylamino-5-hydroxychroman, 3-dipropylamino-5-hydroxychroman]: the IC50 in test [1] was determined as 83 nM. Moreover, the “activity in ³H-spiroperidol (Dopamine-D₂) receptor binding” value in test [2] was “inactive”. In addition, the “activity in ³H-Ketanserin (5-HT₂) receptor binding” value in test [3] was “inactive”.
